Data as given in publication PMC10057893, “Synthesis and Biological Evaluation of New Schiff Bases Derived from 4-Amino-5-(3-fluorophenyl)-1,2,4-triazole-3-thione” (Molecules, 2023).
≈ marks a conversion by molar mass, not a printed value. Where two headings read alike, the source gives them in different places.

Columns and labels:
[1] = system: Bacillus subtilis ATCC 6633; assay: Broth microdilution MIC/MBC, antibacterial; assay type: cell-based; conditions: ATCC6633
Protocol: (§1) The minimal inhibitory concentration (MIC) was determined with the microdilution technique using 96-well polystyrene microplates (Medlab, Poland), as indicated by the European Committee on Antimicrobial Susceptibility Testing (EUCAST) guidelines. In this process, stock solutions of each tested Schiff base dissolved in dimethylsulphoxide (DMSO, Stanlab, Poland) were used at a concentration of 50 mg/mL. Before in vitro antibacterial activity detection, the basic concentration of 1000 µg/mL of each compound was prepared with Mueller–Hinton broth medium (MHB, BioMaxima, Lublin, Poland). The experiment was prepared using Mueller–Hinton broth medium in 96-well microplates. A series of two-fold dilutions of the tested compounds in the concentration range from 0.49 to 1000 μg/mL was made in culture broth medium. Then, 2 μL of bacterial inoculum with a density of 0.5 McFarland standard was added to each well. Each well was filled with a total volume of 100 μL. Then, the microtiter plates were incubated for 18 ± 2 h at 35 °C. After the incubation, the results were spectrophotometrically determined in Biotek ELx800 (Biokom, Janki, Poland) at 600 nm (OD600). The lowest concentration of the tested compounds with the absence of bacterial growth was determined as an MIC. Three replicates for each strain and compound were performed.
(§2) After incubation, 5 μL of the broth media cultured with bacteria or fungi were removed from each well of the plates used in the MIC experiments. Next, they were culturd onto the surface of the MHA medium (BioMaxima, Lublin, Poland) plate for bacteria or MHA +2% glucose plate for yeasts. The inoculated plates were incubated in the conditions mentioned above. After incubation, a visual reading of MBC or MFC values was made. […] Three replicates for each strain and compound were performed.

[2] = system: Escherichia coli ATCC 25922; assay: Broth microdilution MIC/MBC, antibacterial; assay type: cell-based; conditions: ATCC25922, Escherichia coli ATCC 25922
Protocol: as §1, §2

[3] = system: Klebsiella pneumoniae ATCC 13883; assay: Broth microdilution MIC/MBC, antibacterial; assay type: cell-based; conditions: ATCC13883, Klebsiella pneumoniae ATCC 13883
Protocol: as §1, §2

[4] = system: Micrococcus luteus ATCC 10240; assay: Broth microdilution MIC/MBC, antibacterial; assay type: cell-based; conditions: ATCC10240
Protocol: as §1, §2

[5] = system: Pseudomonas aeruginosa ATCC 27853; assay: Broth microdilution MIC/MBC, antibacterial; assay type: cell-based; conditions: ATCC27853
Protocol: as §1, §2

[6] = system: Staphylococcus aureus ATCC 6538; assay: Broth microdilution MIC/MBC, antibacterial; assay type: cell-based; conditions: ATCC6538
Protocol: as §1, §2

[7] = system: Staphylococcus epidermidis ATCC 12228; assay: Broth microdilution MIC/MBC, antibacterial; assay type: cell-based; conditions: ATCC12228
Protocol: as §1, §2

[8] = system: Candida albicans ATCC 10231; assay: Broth microdilution MIC/MFC, antifungal; assay type: cell-based; conditions: for MIC: ATCC10231
Protocol: (§3) To determine the antifungal activity of the newly synthesized Schiff bases against the reference strains of Candida spp., the broth microdilution method was used according to the EUCAST [52] and Clinical and Laboratory Standards Institute (CLSI) guidelines with some modifications to the medium. Before in vitro antifungal activity detection, the basic concentration of 1000 µg/mL of each compound was prepared with Mueller–Hinton broth (BioMaxima, Lublin, Poland) supplemented with 2% glucose (MHB+2% glucose). […] The final concentrations of the Schiff bases ranged from […] to 1000 µg/mL. All the reference strains of Candida spp. used were first subcultured to the Mueller–Hinton agar medium (BioMaxima, Lublin, Poland) with 2% glucose (MHA +2% glucose) at 37 °C for 24 h. Next, 2 µL of appropriate fungal suspensions was added to each well containing 100 µL of MHB + 2% glucose and the various concentrations of the tested Schiff bases.
as §2

Candida auris CDC B11903 = assay: Broth microdilution MIC/MFC, antifungal; assay type: cell-based; conditions: Candidozyma auris, CDCB11903
Protocol: as §3, §2

[9] = system: Candida glabrata ATCC 15126; assay: Broth microdilution MIC/MFC, antifungal; assay type: cell-based; conditions: Nakaseomyces glabratus, ATCC15126
Protocol: as §3, §2

[10] = system: Candida glabrata ATCC 90030; assay: Broth microdilution MIC/MFC, antifungal; assay type: cell-based; conditions: Nakaseomyces glabratus, ATCC90030
Protocol: as §3, §2

[11] = system: Candida krusei ATCC 14243; assay: Broth microdilution MIC/MFC, antifungal; assay type: cell-based; conditions: Pichia kudriavzevii, ATCC14243
Protocol: as §3, §2

[12] = system: Candida lusitaniae ATCC 3449; assay: Broth microdilution MIC/MFC, antifungal; assay type: cell-based; conditions: Clavispora lusitaniae, ATCC3449
Protocol: as §3, §2

[13] = system: Candida tropicalis ATCC 1369; assay: Broth microdilution MIC/MFC, antifungal; assay type: cell-based; conditions: ATCC1369
Protocol: as §3, §2

MDA-MB-231 = assay: MTT cell viability assay; assay type: cell-based, human; conditions: Homo sapiens, MDA-MB-231, MTT, read-out: Cytotoxic activity IC50
Protocol: (§4) All the cell lines were purchased from the American Type Culture Collection (ATCC, Rockville, MD, USA) and cultured in strictly defined conditions according to the recommended ATCC protocol. The PC3 cells were cultured in RPMI 1640 (Roswell Park Memorial Institute, Biowest SAS, Nuaillé, France), while the MDA-MB-231 and HaCaT cells were maintained in DMEM (Dulbecco’s Modified Eagle’s Medium, Biowest SAS, Nuaillé, France) supplemented with 1% streptomycin and penicillin and in 10% heat-inactivated fetal bovine serum (FBS, Gibco BRL San Francisco, CA, USA) with 1% streptomycin and penicillin. The cells were incubated in a 37 °C/5% CO2 humidified incubator. They were cultured until 80–90% confluence was achieved. Then, they were harvested by treatment with 0.25% trypsin-0.02% EDTA (Gibco BRL, San Francisco, CA, USA) and used in the experiments. Untreated cells were used as a control. […] After 24 h of incubation, the culture medium was replaced with a fresh medium. […] Then, the medium was aspirated and formed formazan crystals were solubilized by adding isopropanol-DMSO mixture (1:1 vol). The intensity of the dissolved crystals was measured using a UVM 340 reader (ASYS Hitech GmbH, Eugendorf, Austria) at a wavelength of 570 nm. Cell viability was estimated by the percentage of MTT reduction in cells to which the tested compounds were added, compared to the control sample, where only the medium was added. The experiments were repeated three times. The IC50 was calculated using GraphPad Prism 9.0.0 (GraphPad Software).

PC3 = assay: MTT cell viability assay; assay type: cell-based, human; conditions: Homo sapiens, PC-3, PC3, MTT, read-out: Cytotoxic activity IC50
Protocol: as §4

MTT cell viability assay = assay type: cell-based; conditions: human, HaCaT cells (immortal keratinocytes), HaCaT normal cell line, read-out: Cytotoxic activity IC50 (converted)
Protocol: as §4

Compound	MIC [1]	MIC [4]	MIC [5]	MIC [6]	MIC [7]	MIC [8]	MFC ([8]; ATCC10231, read-out: MFC)	MIC (Candida auris CDC B11903)	MIC [9]	MIC [10]	MIC [11]	MIC [12]	MIC [13]	IC50 (MDA-MB-231; 72 h (table footnote))	IC50 (MDA-MB-231; same value in µg/mL)	IC50 (PC3; 72 h (table footnote))	IC50 (PC3; same value in µg/mL)	IC50 at 72 h (MTT cell viability assay; 72 h (table footnote))	IC50 at 72 h (MTT cell viability assay; same value in µg/mL)	melting point	also measured
COc1ccc(C=Nn2c(-c3cccc(F)c3)n[nH]c2=S)cc1 [RO4, 5-(3-fluorophenyl)-4-[(4-methoxybenzylidene)amino]-2,4-dihydro-3H-1,2,4-triazole-3-thione]	1000 µg/mL (≈ 3.05 mM)	125 µg/mL (≈ 0.381 mM)	> 1000 µg/mL	500 µg/mL (≈ 1.52 mM)	500 µg/mL (≈ 1.52 mM)	62.5 µg/mL (≈ 0.19 mM)	> 1000 µg/mL	1000 µg/mL (≈ 3.05 mM)	1000 µg/mL (≈ 3.05 mM)	> 1000 µg/mL	500 µg/mL (≈ 1.52 mM)	1000 µg/mL (≈ 3.05 mM)	1000 µg/mL (≈ 3.05 mM)	> 100 µM	> 38.8 µg/mL	> 100 µM	> 38.8 µg/mL	> 100 µM	> 38.8 µg/mL	215 to 216 °C	MIC [2]: 1000 µg/mL (≈ 3.05 mM); MIC [3]: 1000 µg/mL (≈ 3.05 mM); MBC [4]: > 1000 µg/mL; MBC [5]: > 1000 µg/mL; MBC [6]: > 1000 µg/mL; MBC [7]: > 1000 µg/mL; MFC [8]: >1000 µg/mL; MFC [11]: > 1000 µg/mL
CCCCOc1ccc(C=Nn2c(-c3cccc(F)c3)n[nH]c2=S)cc1 [RO8, 4-[(4-butoxybenzylidene)amino]-5-(3-fluorophenyl)-2,4-dihydro-3H-1,2,4-triazole-3-thione]	1000 µg/mL (≈ 2.7 mM)	125 µg/mL (≈ 0.337 mM)	> 1000 µg/mL	250 µg/mL (≈ 0.675 mM)	250 µg/mL (≈ 0.675 mM)	500 µg/mL (≈ 1.35 mM)	> 1000 µg/mL	> 1000 µg/mL	500 µg/mL (≈ 1.35 mM)	> 1000 µg/mL	> 1000 µg/mL	> 1000 µg/mL	> 1000 µg/mL	> 100 µM	> 37 µg/mL	> 100 µM	> 37 µg/mL	> 100 µM	> 37 µg/mL	183 to 185 °C	MIC [2]: 1000 µg/mL (≈ 2.7 mM); MIC [3]: > 1000 µg/mL; MBC [4]: > 1000 µg/mL; MBC [6]: > 1000 µg/mL; MBC [7]: > 1000 µg/mL; MFC [9]: > 1000 µg/mL
COc1cccc(C=Nn2c(-c3cccc(F)c3)n[nH]c2=S)c1 [RO11, 5-(3-fluorophenyl)-4-[(3-methoxybenzylidene)amino]-2,4-dihydro-3H-1,2,4-triazole-3-thione]	> 1000 µg/mL	> 1000 µg/mL	> 1000 µg/mL	> 1000 µg/mL	> 1000 µg/mL	500 µg/mL (≈ 1.52 mM)	1000 µg/mL (≈ 3.05 mM)	1000 µg/mL (≈ 3.05 mM)	> 1000 µg/mL	500 µg/mL (≈ 1.52 mM)	1000 µg/mL (≈ 3.05 mM)	> 1000 µg/mL	1000 µg/mL (≈ 3.05 mM)	> 100 µM	> 38.8 µg/mL	> 100 µM	> 38.8 µg/mL	> 100 µM	> 38.8 µg/mL	203 to 204 °C	MIC [2]: > 1000 µg/mL; MIC [3]: > 1000 µg/mL; MFC [10]: > 1000 µg/mL
Cc1cccc(C=Nn2c(-c3cccc(F)c3)n[nH]c2=S)c1 [RO9, 5-(3-fluorophenyl)-4-[(3-methylbenzylidene)amino]-2,4-dihydro-3H-1,2,4-triazole-3-thione]	500 µg/mL (≈ 1.6 mM)	125 µg/mL (≈ 0.4 mM)	> 1000 µg/mL	125 µg/mL (≈ 0.4 mM)	250 µg/mL (≈ 0.8 mM)	1000 µg/mL (≈ 3.2 mM)	> 1000 µg/mL	> 1000 µg/mL	> 1000 µg/mL	> 1000 µg/mL	> 1000 µg/mL	> 1000 µg/mL	> 1000 µg/mL	> 100 µM	> 31.2 µg/mL	> 100 µM	> 31.2 µg/mL	> 100 µM	> 31.2 µg/mL	232 to 234 °C	MBC [1]: > 1000 µg/mL; MBC [4]: > 1000 µg/mL; MBC [6]: > 1000 µg/mL; MBC [7]: > 1000 µg/mL
